{"source": "patent US8198405B2", "about": "“Stabilized alpha helical peptides and uses thereof” (Dana-Farber Cancer Institute, Inc., priority 2003, dated 2012)", "key": {"[1]": {"system": "purified mouse liver mitochondria", "experiment": "Cytochrome c release assay (ELISA), wild-type mitochondria", "type": "biochemical", "conditions": "wild-type versus Bak-/- mitochondria", "procedure": "In order to assess the biological activity of SAHB3BID compounds in vitro, cytochrome c release assays were performed using purified mouse liver mitochondria. Mitochondria (0.5 mg/mL) were incubated for 40 minutes with 1 μM and 100 nM of SAHB3BID compounds and then supernatants and mitochondrial fractions isolated and subjected to cytochrome c ELISA assay. Background cytochrome c release (10-15%) was subtracted from total release for each sample, and the percent actual cytochrome c release was determined (FIG. 12). […] In each case, except for the double cross-linked SAHB3BIDE (which may lack critical amino acids for biological activity or, in this case, be overly constrained by the dual cross-links), there is approximately a doubling of cytochrome c release in response to 1 μM SAHB3BID compounds compared to the unmodified peptide (FIG. 12a). […] BID mutants with defective BH3 domains can promote BAK-independent cytochrome c mobilization (Scorrano et al, Dev Cell, 2:55), and the highly hydrophobic BID helix 6 has been implicated in this activity (L. Scorrano, S. J. Korsmeyer, unpublished results).\nSimilar to the above experiment, mouse liver mitochondria from wild-type and Bak−/− mice were exposed to the compounds at various concentrations and assayed for cytochrome c release at 10 and 40 minute intervals. […] Thus, SAHB3BIDA and B display a 10-25 fold enhancement in cytochrome c release activity at the 40 minute time point."}, "Jurkat leukemia cells": {"system": "Jurkat leukemia cells", "experiment": "Apoptosis by annexin V flow cytometry", "type": "cell-based", "conditions": "10 μM, 20 hours", "procedure": "Indeed, the pro-apoptotic effect of 10 uM SAHB3BIDA and B on “wild-type” Jurkats was abolished in the BCL-2 overexpressing cells. […] The observed pro-apoptotic effects are selectively abolished by gly to glu mutation of SAHB3BIDA and cellular overexpression of BCL-2, findings which underscore that SAHB3BID compounds function via the defined mitochondrial apoptosis pathway."}, "BAX": {"target": "T1, BAX (Homo sapiens, UniProt Q07812)", "T1 construct": "Full-length BAX protein was prepared as previously described (Suzuki et al, Cell, 103:645); made in house", "T1 sequence (Q07812 whole entry)": "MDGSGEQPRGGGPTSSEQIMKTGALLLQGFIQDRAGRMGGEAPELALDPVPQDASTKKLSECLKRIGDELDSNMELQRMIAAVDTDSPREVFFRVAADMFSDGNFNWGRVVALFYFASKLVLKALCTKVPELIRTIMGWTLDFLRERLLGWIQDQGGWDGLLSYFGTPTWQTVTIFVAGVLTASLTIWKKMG", "experiment": "Fluorescence polarization direct binding assay", "conditions": "full-length BAX"}, "BCL-2": {"target": "T2, BCL-2 (Homo sapiens, UniProt P10415)", "T2 construct": "containing the plasmid encoding C-terminal deleted GST-BCL-2; made in house; host or cells: Escherichia coli BL21 (DE3)", "T2 sequence (P10415 1-218 limits assumed)": "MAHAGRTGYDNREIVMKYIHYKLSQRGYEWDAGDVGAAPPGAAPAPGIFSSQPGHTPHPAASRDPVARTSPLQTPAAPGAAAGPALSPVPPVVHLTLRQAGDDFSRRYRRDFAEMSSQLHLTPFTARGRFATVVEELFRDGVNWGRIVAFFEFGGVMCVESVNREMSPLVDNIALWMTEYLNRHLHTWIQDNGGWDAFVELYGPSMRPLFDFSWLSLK", "experiment": "Fluorescence polarization direct binding assay", "conditions": "fluorescinated compounds 25 nM, GST-BCL2 25 nM-1000 nM (FIG. 11d)"}, "[2]": {"system": "REH, MV4; 11, and SEMK2 cell lines", "experiment": "Apoptosis induction assays", "type": "cell-based"}}, "note": "Where a SMILES comes first, the peptide text is derived from it. Bridges are numbered along the chain shown (N, C = ends). [ ]: non-standard residue; d: D form. S5 = C=CCCC[C@](C)(N)C(=O)O; Nle = CCCC[C@H](N)C(=O)O"}
{"molecule": "CCCC[C@H](NC(=O)[C@]1(C)CCCC=CCCC[C@](C)(NC(=O)[C@H](C)NC(=O)[C@H](CC(C)C)NC(=O)[C@H](Cc2c[nH]cn2)NC(=O)[C@H](CCCNC(=N)N)NC(=O)[C@H](C)NC(=O)[C@@H](NC(=O)[C@H](CC(N)=O)NC(=O)[C@H](CCCNC(=N)N)NC(=O)[C@@H](NC(=O)[C@@H](NC(=O)[C@H](CC(=O)O)NC(=O)[C@H](CCC(=O)O)NC(C)=O)[C@@H](C)CC)[C@@H](C)CC)[C@@H](C)CC)C(=O)N[C@@H](C(C)C)C(=O)N[C@@H](CCC(=O)O)C(=O)N[C@@H](CC(=O)O)C(=O)N1)C(=O)N[C@@H](CC(=O)O)C(=O)N[C@@H](CCCNC(=N)N)C(=O)N[C@@H](CO)C(=O)N[C@H](C(=O)N[C@@H](Cc1c[nH]c2ccccc12)C(N)=O)[C@@H](C)CC", "note": "[SAHB3BID(G→E)A] (Ac-EDIIRNIARHLA[S5]VED[S5][Nle]DRSIW-NH2; staple 13-17; N-terminus assumed)", "values": [{"measurement": "Bak dependence of cytochrome c release, in words", "setting": "[1]", "value": "only Bak-independent cytochrome c release"}, {"measurement": "apoptosis induction, in words", "setting": "Jurkat leukemia cells", "value": "no effect"}, {"measurement": "BAX binding, in words", "setting": "BAX", "value": "measurable binding"}, {"measurement": "Kd", "setting": "BCL-2", "value": 483, "unit": "nM"}, {"measurement": "apoptosis induction, in words", "setting": "[2]", "value": "no effect"}]}
